# From patent publication US8613909B2, “Cinnamic acid-based oligomers and uses thereof” (Virginia Commonwealth University, priority 2008, dated 2013)
# Assays:
# [1] = system: NFκB in Calu-3 human bronchial epithelial cells; assay: TNFα-dependent NFκB-Luc reporter repression in Calu-3 cells; assay type: cell-based
# Procedure: Anti-inflammatory activity of each of the oligomers was determined using Calu-3 human bronchial epithelial cells (American Type Culture Collection; ATCC), from repression of the inflammatory transcription factor NFκB. The Calu-3 cells of 0.5×10^6 cells/cm^2 in 12-well plates were cultured for 24 h and then, transfected with 0.6 μg luciferase (Luc)-tagged reporter plasmid construct of NFκB (pNFκB-Luc) for another 24 h using the Effectene reagents (Qiagen) under the protocol optimized in-house. On day 3, the transfected Calu-3 cells were stimulated for 6 h with 30 ng/ml human tumor necrosis factor α (TNF α; BD Biosciences) in the presence of each oligomer at 0-100 μM in culture. Then, the Calu-3 cells were lysed, after which the Luc activities were measured using 20/20n luminometer (Turner BioSystems). The cellular NFκB-Luc activity was expressed in relative light unit/mg protein, normalized by the total protein measured by the BCA assay (Pierce Biotechnology). A fold-induction of such a normalized NFκB-Luc activity relative to the transfection control was derived for treatment group comparison; this accommodated inter-transfection efficiency differences.
# [2] = Chemical antioxidant assay (ABTS oxidation by metmyoglobin/hydrogen peroxide); details: room temperature, absorbance at 750 nm in first 5 min; read-out: AOC50 (half maximal anti-oxidative concentration)
# Procedure: Anti-oxidative activity of the oligomers was determined at room temperature using the chemical antioxidant assay kit (Cayman Chemical Co.) in a 96-well plate format, in accord with the manufacturer's protocol. The kit has been validated in-house with respect to assay precision and accuracy. Oxidative reaction of ABTS (2,2′-azino-di-[3-ethylbenzthiazoline sulphonate]) to its oxidative product, ABTS•+, by metmyoglobin and 84 μM hydrogen peroxide were monitored for 20 min in the presence of each oligomer at 0-100 μM. The absorbance at 750 nm due to ABTS•+ generation was measured using the microplate reader. Initial linear rate of oxidation was assessed with the absorbance produced for the first 5 min. The half maximal anti-oxidative concentration (AOC50) values were derived, assuming the sigmoidal concentration-dependence of the initial oxidation rate in the logistic function equation.
Structure (SMILES),repression of NFκB-Luc activity ([1]; by 100 μM),EC50 [2] [µM],repression of TNFα-induced NFκB-Luc activity ([1]; 5 μM) [%]
"O=C(O)/C=C/c1ccc(O)c(O)c1 [CA, caffeic acid]",no appreciable repression,16.8 ± 1.6,
"CCC(=O)O[C@]1(C(=O)SCF)[C@H](C)C[C@H]2[C@@H]3C[C@H](F)C4=CC(=O)C=C[C@]4(C)[C@@]3(F)[C@@H](O)C[C@@]21C [FP, fluticasone propionate]",,,100
